This test addresses T1, human PDE4B1 (Homo sapiens, UniProt Q07343).
T1 construct: host or cells: Sf9 cells
In words: cAMP HTRF assay to determine the activity of hPDE4B1. Type of test: biochemical. The following applies: inhibition of PDE4B at a test concentration of 1 μM. A digest of the protocol:
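[…], using HTRF quantitation of residual cAMP after 1 mM IBMX stop and 60 min detection. Enzyme was Sf9-expressed human PDE4B1 incubated 30 min at room temperature with 40 nM final cAMP at pH 7.8.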
On the technique in general: TR-FRET usually uses a lanthanide donor and a delayed reading to cut background.
T1 sequence (Q07343 whole entry): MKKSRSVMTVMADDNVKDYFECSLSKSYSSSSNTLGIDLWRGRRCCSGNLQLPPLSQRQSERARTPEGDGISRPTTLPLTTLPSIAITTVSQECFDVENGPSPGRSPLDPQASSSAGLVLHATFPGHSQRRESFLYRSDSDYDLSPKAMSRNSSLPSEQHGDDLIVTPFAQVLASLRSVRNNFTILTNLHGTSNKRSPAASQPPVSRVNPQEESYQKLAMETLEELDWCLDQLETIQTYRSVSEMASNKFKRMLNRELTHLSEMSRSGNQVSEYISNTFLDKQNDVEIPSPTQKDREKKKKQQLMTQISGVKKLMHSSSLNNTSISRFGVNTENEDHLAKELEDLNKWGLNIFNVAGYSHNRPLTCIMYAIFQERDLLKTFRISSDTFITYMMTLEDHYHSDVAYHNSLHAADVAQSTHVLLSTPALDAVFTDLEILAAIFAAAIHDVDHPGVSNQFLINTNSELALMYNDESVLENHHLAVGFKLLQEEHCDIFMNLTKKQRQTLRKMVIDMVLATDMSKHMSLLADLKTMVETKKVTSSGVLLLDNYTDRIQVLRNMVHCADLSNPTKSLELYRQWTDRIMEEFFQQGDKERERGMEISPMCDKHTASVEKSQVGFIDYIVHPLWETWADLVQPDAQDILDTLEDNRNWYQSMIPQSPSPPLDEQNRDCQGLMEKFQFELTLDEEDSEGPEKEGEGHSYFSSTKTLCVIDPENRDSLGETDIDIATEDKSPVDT
For orientation: inhibition means the change of the read-out against control, counted positive when it falls. Take `C[C@H]1COCCN1C(=O)c1ccc2c([S+](C)[O-])cn(-c3ncc(-c4ccccc4F)cn3)c2c1` (stereo partly drawn) [Example 178, (1-(5-(2-Fluorophenyl)pyrimidin-2-yl)-3-(methylsulfinyl)-1H-indol-6-yl)((S)-3-methylmorpholino)methanone]: the inhibition at 1 µM is 88%.

With `C[C@@H]1COCCN1C(=O)c1ccc2c([S+](C)[O-])cn(-c3ncc(-c4ccccc4F)cn3)c2c1` (stereo partly drawn) [Example 179, (1-(5-(2-Fluorophenyl)pyrimidin-2-yl)-3-(methylsulfinyl)-1H-indol-6-yl)((R)-3-methylmorpholino)methanone], the inhibition at 1 µM came to 90%.

For the compound `Cc1cccc(-c2cnc(-n3cc([S+](C)[O-])c4ccc(C(=O)N5CCOCC5)cc43)nc2)n1` (centres unmarked) [Example 180, (1-(5-(6-Methylpyridin-2-yl)pyrimidin-2-yl)-3-(methylsulfinyl)-1H-indol-6-yl)(morpholino)methanone], the inhibition at 1 µM amounted to 99%.

On to `C[S+]([O-])c1cn(-c2ncc(-c3cc(C#N)ccn3)cn2)c2cc(C(=O)N3CCOCC3)ccc12` (centres unmarked) [Example 181, 2-(2-(3-(Methylsulfinyl)-6-(morpholine-4-carbonyl)-1H-indol-1-yl)pyrimidin-5-yl)isonicotinonitrile], for which the inhibition at 1 µM worked out at 96%.

For `C[S+]([O-])c1cn(-c2ncc(-c3cc(F)ccn3)cn2)c2cc(C(=O)N3CCOCC3)ccc12` (centres unmarked) [Example 182, (1-(5-(4-Fluoropyridin-2-yl)pyrimidin-2-yl)-3-(methylsulfinyl)-1H-indol-6-yl)(morpholino)methanone], the inhibition at 1 µM turned out to be 95%.

Consider `C[S+]([O-])c1cn(-c2ncc(-c3cccc(C#N)n3)cn2)c2cc(C(=O)N3CCOCC3)ccc12` (centres unmarked) [Example 183, 6-(2-(3-(Methylsulfinyl)-6-(morpholine-4-carbonyl)-1H-indol-1-yl)pyrimidin-5-yl)picolinonitrile], for which the inhibition at 1 µM amounted to 60%.

`C[S+]([O-])c1cn(-c2ncc(-c3cccc(F)n3)cn2)c2cc(C(=O)N3CCOCC3)ccc12` (centres unmarked) [Example 185, (1-(5-(6-Fluoropyridin-2-yl)pyrimidin-2-yl)-3-(methylsulfinyl)-1H-indol-6-yl)(morpholino)methanone]: the inhibition at 1 µM stood at 97%.

Regarding `C[S+]([O-])c1cn(-c2ncc(-c3ccccc3)cn2)c2cc(C(=O)N3CC[C@@H](N)C3)ccc12` (stereo partly drawn) [Example 223, ((R)-3-Aminopyrrolidin-1-yl)(3-(methylsulfinyl)-1-(5-phenylpyrimidin-2-yl)-1H-indol-6-yl)methanone], the inhibition at 1 µM was determined as 89%.

Take `Cc1cccc(-c2cnc(-n3cc([S+](C)[O-])c4ccc(C(=O)N5CC[C@@H](N)C5)cc43)nc2)c1` (stereo partly drawn) [Example 224, ((R)-3-Aminopyrrolidin-1-yl)(3-(methylsulfinyl)-1-(5-(m-tolyl)pyrimidin-2-yl)-1H-indol-6-yl)methanone]: the inhibition at 1 µM came to 102%.

Regarding `C[S+]([O-])c1cn(-c2ncc(-c3cc(C#N)ccc3F)cn2)c2cc(C(=O)N3CC[C@@H](N)C3)ccc12` (stereo partly drawn) [Example 225, 3-(2-(6-((R)-3-Aminopyrrolidine-1-carbonyl)-3-(methylsulfinyl)-1H-indol-1-yl)pyrimidin-5-yl)-4-fluorobenzonitrile], the inhibition at 1 µM was determined as 92%.

As to `COc1ccc(F)c(-c2cnc(-n3cc([S+](C)[O-])c4ccc(C(=O)N5CC[C@@H](N)C5)cc43)nc2)c1` (stereo partly drawn) [Example 226, ((R)-3-Aminopyrrolidin-1-yl)(1-(5-(2-fluoro-5-methoxyphenyl)pyrimidin-2-yl)-3-(methylsulfinyl)-1H-indol-6-yl)methanone], the inhibition at 1 µM amounted to 99%.

In the case of `Cc1ccc(F)c(-c2cnc(-n3cc([S+](C)[O-])c4ccc(C(=O)N5CC[C@@H](N)C5)cc43)nc2)c1` (stereo partly drawn) [Example 227, ((R)-3-Aminopyrrolidin-1-yl)(1-(5-(2-fluoro-5-methylphenyl)pyrimidin-2-yl)-3-(methylsulfinyl)-1H-indol-6-yl)methanone], the inhibition at 1 µM is 108%.

For the compound `CS(=O)(=O)c1cn(-c2ncc(-c3ccccc3)cn2)c2cc(C(=O)N3CC[C@@H](N)C3)ccc12` [Example 228, (R)-(3-Aminopyrrolidin-1-yl)(3-(methylsulfonyl)-1-(5-phenylpyrimidin-2-yl)-1H-indol-6-yl)methanone], the inhibition at 1 µM is 104%.

`CS(=O)(=O)c1cn(-c2ncc(-c3cc(C#N)ccc3F)cn2)c2cc(C(=O)N3CC[C@@H](N)C3)ccc12` [Example 229, (R)-3-(2-(6-(3-Aminopyrrolidine-1-carbonyl)-3-(methylsulfonyl)-1H-indol-1-yl)pyrimidin-5-yl)-4-fluorobenzonitrile]: the inhibition at 1 µM was found to be 106%.

Regarding `COc1ccc(F)c(-c2cnc(-n3cc(S(C)(=O)=O)c4ccc(C(=O)N5CC[C@@H](N)C5)cc43)nc2)c1` [Example 230, (R)-(3-Aminopyrrolidin-1-yl)(1-(5-(2-fluoro-5-methoxyphenyl)pyrimidin-2-yl)-3-(methylsulfonyl)-1H-indol-6-yl)methanone], the inhibition at 1 µM worked out at 110%.

For the compound `Cc1ccc(F)c(-c2cnc(-n3cc(S(C)(=O)=O)c4ccc(C(=O)N5CC[C@@H](N)C5)cc43)nc2)c1` [Example 231, (R)-(3-Aminopyrrolidin-1-yl)(1-(5-(2-fluoro-5-methylphenyl)pyrimidin-2-yl)-3-(methylsulfonyl)-1H-indol-6-yl)methanone], the inhibition at 1 µM was 121%.

Turning to `C[S+]([O-])c1cn(-c2ncc(-c3ccccc3)cn2)c2cc(C(=O)N3C[C@H]4C[C@@H]3CN4)ccc12` (stereo partly drawn) [Example 232, (1R,4R)-2,5-Diazabicyclo[2.2.1]heptan-2-yl(3-(methylsulfinyl)-1-(5-phenylpyrimidin-2-yl)-1H-indol-6-yl)methanone], the inhibition at 1 µM came to 57%.

With `C[S+]([O-])c1cn(-c2ncc(-c3ccccc3)cn2)c2cc(C(=O)N3C[C@@H]4C[C@H]3CN4)ccc12` (stereo partly drawn) [Example 233, (1S,4S)-2,5-Diazabicyclo[2.2.1]heptan-2-yl(3-(methylsulfinyl)-1-(5-phenylpyrimidin-2-yl)-1H-indol-6-yl)methanone], the inhibition at 1 µM stood at 103%.

Consider `C[S+]([O-])c1cn(-c2ncc(-c3ccccc3)cn2)c2cc(C(=O)N3C[C@H]4C[C@@H]3CO4)ccc12` (stereo partly drawn) [Example 234, (1R,4R)-2-Oxa-5-azabicyclo[2.2.1]heptan-5-yl(3-(methylsulfinyl)-1-(5-phenylpyrimidin-2-yl)-1H-indol-6-yl)methanone], for which the inhibition at 1 µM stood at 91%.

Take `CS(=O)(=O)c1cn(-c2ncc(-c3ccccc3)cn2)c2cc(C(=O)N3C[C@@H]4C[C@H]3CN4)ccc12` [Example 236, (1S,4S)-2,5-Diazabicyclo[2.2.1]heptan-2-yl(3-(methylsulfonyl)-1-(5-phenylpyrimidin-2-yl)-1H-indol-6-yl)methanone]: the inhibition at 1 µM is 85%.

With `CS(=O)(=O)c1cn(-c2ncc(-c3ccccc3)cn2)c2cc(C(=O)N3C[C@H]4C[C@@H]3CO4)ccc12` [Example 237, (1R,4R)-2-Oxa-5-azabicyclo[2.2.1]heptan-5-yl(3-(methylsulfonyl)-1-(5-phenylpyrimidin-2-yl)-1H-indol-6-yl)methanone], the inhibition at 1 µM was found to be 36%.

On to `CS(=O)(=O)c1cn(-c2ncc(-c3ccccc3F)cn2)c2cc(C(=O)N3C[C@H]4C[C@@H]3CO4)ccc12` [Example 238, (1R,4R)-2-Oxa-5-azabicyclo[2.2.1]heptan-5-yl(1-(5-(2-fluorophenyl)pyrimidin-2-yl)-3-(methylsulfonyl)-1H-indol-6-yl)methanone], for which the inhibition at 1 µM is 32%.

Regarding `CS(=O)(=O)c1cn(-c2ncc(-c3ccccc3F)cn2)c2cc(C(=O)N3C[C@@H]4C[C@H]3CN4)ccc12` [Example 239, (1S,4S)-2,5-Diazabicyclo[2.2.1]heptan-2-yl(1-(5-(2-fluorophenyl)pyrimidin-2-yl)-3-(methylsulfonyl)-1H-indol-6-yl)methanone], the inhibition at 1 µM was 78%.

For `C[S+]([O-])c1cn(-c2ncc(-c3ccccc3F)cn2)c2cc(C(=O)N3C[C@@H]4C[C@H]3CN4)ccc12` (stereo partly drawn) [Example 240, (1S,4S)-2,5-Diazabicyclo[2.2.1]heptan-2-yl(1-(5-(2-fluorophenyl)pyrimidin-2-yl)-3-(methylsulfinyl)-1H-indol-6-yl)methanone], the inhibition at 1 µM was found to be 101%.

With `C[S+]([O-])c1cn(-c2ncc(-c3ccccc3F)cn2)c2cc(C(=O)N3C[C@@H]4CCN[C@@H]4C3)ccc12` (stereo partly drawn) [Example 242, (1-(5-(2-Fluorophenyl)pyrimidin-2-yl)-3-(methylsulfinyl)-1H-indol-6-yl)((3aS,6aS)-hexahydropyrrolo[3,4-b]pyrrol-5(1H)-yl)methanone], the inhibition at 1 µM is 66%.

Turning to `C[S+]([O-])c1cn(-c2ncc(-c3ccccc3F)cn2)c2cc(C(=O)N3C[C@H]4C[C@@H]3CO4)ccc12` (stereo partly drawn) [Example 243, (1R,4R)-2-Oxa-5-azabicyclo[2.2.1]heptan-5-yl(1-(5-(2-fluorophenyl)pyrimidin-2-yl)-3-(methylsulfinyl)-1H-indol-6-yl)methanone], the inhibition at 1 µM worked out at 64%.

Take `C[S+]([O-])c1cn(-c2ncc(-c3ccccn3)cn2)c2cc(C(=O)N3C[C@@H]4C[C@H]3CN4)ccc12` (stereo partly drawn) [Example 244, (1S,4S)-2,5-Diazabicyclo[2.2.1]heptan-2-yl(3-(methylsulfinyl)-1-(5-(pyridin-2-yl)pyrimidin-2-yl)-1H-indol-6-yl)methanone]: the inhibition at 1 µM was 102%.

As for `CN(CC1(O)CC1)C(=O)c1ccc2c([S+](C)[O-])cn(-c3ncc(-c4ccccc4F)cn3)c2c1` (centres unmarked) [Example 250, 1-(5-(2-Fluorophenyl)pyrimidin-2-yl)-N-((1-hydroxycyclopropyl)methyl)-N-methyl-3-(methylsulfinyl)-1H-indole-6-carboxamide], the inhibition at 1 µM was 30%.

For `C[C@H](O)CN(C)C(=O)c1ccc2c([S+](C)[O-])cn(-c3ncc(-c4ccccc4F)cn3)c2c1` (stereo partly drawn) [Example 251, 1-(5-(2-Fluorophenyl)pyrimidin-2-yl)-N—((S)-2-hydroxypropyl)-N-methyl-3-(methylsulfinyl)-1H-indole-6-carboxamide], the inhibition at 1 µM came out at 45%.

Values taken from patent publication US9315490B2, “2,5-substituted pyrimidines” (Grünenthal GmbH, priority 2014, dated 2016).
